These results are taken from patent US20220073496A1, “NOVEL QUINOLINE DERIVATIVE INHIBITOR” (Nanjing Transthera Biosciences Co., Ltd., priority 2018, published 2022).

For orientation: half-life means the time in which the quantity being followed falls by half. The low end stands for rapid decline, the high end for slow decline. As a reminder, the microsomal CLint is the capacity of the preparation to metabolise the compound, expressed as a volume cleared per time. Read a low microsomal CLint as greater metabolic stability. As a reminder, the IC50 is the midpoint of a concentration-inhibition curve. Low values mean higher potency, high ones lower potency.

Data set [1] can be described thus: Stability in liver microsome of mice. The class given is in vitro ADME. The conditions noted are these: Mouse liver microsome 0.5 mg protein/mL, compound 1 μM, 37° C.; for half-life at 1 μM / microsomal CLint at 1 μM: liver microsomes. As for the experimental part:
Assay 1: Stability assessment of the compounds of the present invention in liver microsome of mice and dogs
(§1) Test substances: the compounds of the present invention, wherein the structures and preparations thereof were as described above.
The composition of the incubation system:
Preparation of Test Substances:
An appropriate amount of the compound was accurately weighed and dissolved in DMSO to prepare a 5.0 mM stock solution. The 5.0 mM stock solution was diluted to 1.0 mM with DMSO, and finally diluted with water to a 10 μM test substance working solution for use (the DMSO content in the reaction system was 0.1%).
(1) The liver microsome (20 mg protein/mL) was taken out from the −80° C. refrigerator, pre-incubated at 37° C. with a water-bathing constant temperature vibrator for 3 minutes, and melted for use.
(2) A mixed solution of the incubation system (excluding compounds and β-NADPH) according to the above “composition of the incubation system” for the assay was prepared, and pre-incubated at 37° C. with a water-bathing constant temperature vibrator for 2 minutes.
(3) Control group (excluding β-NADPH): 30 μL of water and 30 μL of compound working solution (10 μM) were added to 240 μL of the mixed solution of the incubation system of step (2), and vortexed for 30 seconds to mix well. The total reaction volume was 300 μL. A duplicate sample was prepared. The sample was incubated at 37° C. with a water-bathing constant temperature vibrator. The timekeeping began and the sampling time points were set at 0 minute and 60 minutes.
(4) Sample group: 70 μL of β-NADPH solution (10 mM) and 70 μL of compound working solution (10 μM) were added to 560 μL of the mixed solution of step (2). The total reaction volume was 700 μL. The resulting mixture was vortexed for 30 seconds to mix well. A duplicate sample was prepared. The sample was incubated at 37° C. with a water-bathing constant temperature vibrator. The timekeeping began and the sampling time points were set at 0 minute, 5 minutes, 10 minutes, 20 minutes, 30 minutes, and 60 minutes after timekeeping.
(5) After vortexing for 3 minutes, the sample was centrifuged at 4000 rpm for 10 minutes.
(6) 50 μL of the supernatant was taken and 150 μL of water was added. The resulting mixture was vortexed to mix well, and analyzed by LC/MS/MS.
The half-life (t1/2) and clearance rate (Cl) were calculated using the following first-order kinetic formula:
Vd=1/protein content in liver microsome
Note: k was the slope of the logarithm of the remaining amount of the compound versus time, and Vd was the apparent distribution volume.
A general note: Liver microsomes are a subcellular fraction often used to study metabolism.

Data set [2] addresses T1, Mer (h) (Homo sapiens, UniProt Q12866).
T1 construct: purchased
T1 sequence (Q12866 21-999): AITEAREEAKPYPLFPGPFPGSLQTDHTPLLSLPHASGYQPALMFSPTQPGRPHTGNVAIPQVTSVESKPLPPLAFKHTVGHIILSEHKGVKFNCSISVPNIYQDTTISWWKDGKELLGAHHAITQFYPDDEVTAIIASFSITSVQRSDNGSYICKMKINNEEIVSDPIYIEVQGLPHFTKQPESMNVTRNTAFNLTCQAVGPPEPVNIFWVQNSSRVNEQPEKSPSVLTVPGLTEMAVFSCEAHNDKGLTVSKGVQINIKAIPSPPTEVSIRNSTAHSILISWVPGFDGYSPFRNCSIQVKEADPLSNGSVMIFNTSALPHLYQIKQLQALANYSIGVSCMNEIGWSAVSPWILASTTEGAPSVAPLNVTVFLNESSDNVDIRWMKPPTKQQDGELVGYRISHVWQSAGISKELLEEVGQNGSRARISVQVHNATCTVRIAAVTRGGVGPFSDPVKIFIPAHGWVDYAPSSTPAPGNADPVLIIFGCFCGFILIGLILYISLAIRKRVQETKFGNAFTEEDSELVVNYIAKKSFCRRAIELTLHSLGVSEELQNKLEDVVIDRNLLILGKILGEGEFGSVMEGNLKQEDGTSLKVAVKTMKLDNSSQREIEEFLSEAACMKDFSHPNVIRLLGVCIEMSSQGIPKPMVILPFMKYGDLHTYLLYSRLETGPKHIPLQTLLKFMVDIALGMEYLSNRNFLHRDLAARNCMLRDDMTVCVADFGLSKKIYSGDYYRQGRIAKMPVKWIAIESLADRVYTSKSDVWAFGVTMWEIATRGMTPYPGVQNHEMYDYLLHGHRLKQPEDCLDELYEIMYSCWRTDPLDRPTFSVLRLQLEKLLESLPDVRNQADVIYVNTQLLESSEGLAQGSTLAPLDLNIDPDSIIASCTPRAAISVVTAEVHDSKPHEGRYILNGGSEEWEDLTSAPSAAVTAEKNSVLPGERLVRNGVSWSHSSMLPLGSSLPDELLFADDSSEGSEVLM
The data set can be described thus: Enzymatic activity test, Mer (h). The settings on record: 10 μM [γ-33P]-ATP, 40 minutes, room temperature. The class given is biochemical. The protocol: Assay 3: Enzymatic Activity Test of the Compounds of the Present Invention
as §1
(1) Preparation of the Compound Stock Solution
The compound was dissolved in 100% DMSO to prepare a stock solution with a maximum concentration of 500 μM.
(2) Preparation of the Compound Working Solution
The compound stock solution was diluted to final concentrations of 500, 150, 50, 15, 5, 1.5, 0.5, 0.15 and 0.05 μM to become the compound working solutions (50×).
(3) Preparation of Different Enzyme Reaction Solutions
The Mer (h) enzyme was dissolved in 8 mM MOPS (pH 7.0), 0.2 mM EDTA, 30 mM NaCl, and 250 μM GGMEDIYFEFIVIGGKKK to prepare an enzyme solution having a final concentration of 3.1 nM. The enzymatic reaction was activated by using 10 mM magnesium acetate and 10 μM [γ-^33P]-ATP to form an Mg/ATP mixed solution.
In a 384-well plate, the compound working solution was added to final concentrations of 10000, 3000, 1000, 300, 100, 30, 10, 3, and 1 nM. Then different enzyme reaction solutions prepared according to the above conditions were added. The incubation was carried out for 40 minutes at room temperature. The test was terminated by the addition of a 0.5% phosphoric acid solution. 10 μL of the reaction solution was taken and dropped to the P30 filter paper. The filter paper was washed 4 times with 0.425% phosphoric acid solution and once with methanol, and then placed on a scintillation counter. The […] IC50 values were calculated using GraphPad 5.0 software.

Regarding `COc1cc2nccc(Oc3ccc(NC(=O)c4nn(C5CC5)cc(-c5ccc(C)cc5)c4=O)nc3)c2cc1OC` [Compound 46, 1-cyclopropyl-N-(5-((6,7-dimethoxyquinolin-4-yl)oxy)pyridin-2-yl)-4-oxo-5-p-tolyl-1,4-dihydropyridazine-3-carboxamide], the t1/2 result in data set [1] is listed as “→∞”.

As to `COc1cc2nccc(Oc3cnc(NC(=O)c4cn(C5CC5)nc(-c5ccc(F)cc5)c4=O)nc3)c2cc1OC` [Compound 45, 2-cyclopropyl-N-(5-((6,7-dimethoxyquinolin-4-yl)oxy)pyrimidine-2-yl)-6-(4-fluorophenyl)-5-oxo-2,5-dihydropyridazine-4-carboxamide], in data set [1], the half-life at 1 μM turned out to be 3.3 h and the microsomal CLint at 1 μM came out at 7 µL/min/mg.

`COc1cc2nccc(Oc3cnc(NC(=O)c4cn(C(C)C)nc(-c5ccc(F)cc5)c4=O)nc3)c2cc1OC` [Compound 39, N-(5-((6,7-dimethoxyquinolin-4-yl)oxy)pyrimidine-2-yl)-6-(4-fluorophenyl)-2-isopropyl-5-oxo-2,5-dihydropyridazine-4-carboxamide] came in with an IC50 in data set [2] of 3 nM. Further, in data set [1], the half-life at 1 μM stood at 57.8 h and the microsomal CLint at 1 μM came out at 4 µL/min/mg.

Take `COc1cc2nccc(Oc3ccc(NC(=O)c4cn(C5CC5)cc(-c5ccc(F)cc5)c4=O)nc3)c2cc1OC` [Compound 30, N-(5-((6,7-dimethoxyquinolin-4-yl)oxy)pyridin-2-yl)-1-cyclopropyl-4-oxo-5-para-fluorophenyl-1,4-hydropyridin-3-carboxamide]: the IC50 in data set [2] is under 1 nM. In data set [1], this molecule yielded a half-life at 1 μM of 0.888 h and a microsomal CLint at 1 μM of 26 µL/min/mg.

As to `COc1cc2nccc(Oc3ccc(NC(=O)c4nn(C5CC5)cc(-c5ccc(F)cc5)c4=O)cn3)c2cc1OC` [Compound 36], the IC50 in data set [2] is under 1 nM. In data set [1], this molecule had a half-life at 1 μM of 5.02 h and a microsomal CLint at 1 μM of 4.6 µL/min/mg.

Take `COc1cc2nccc(Oc3ncc(NC(=O)c4nn(C5CC5)cc(-c5ccc(F)cc5)c4=O)cn3)c2cc1OC` [Compound 37, 1-cyclopropyl-N-(2-((6,7-dimethoxyquinolin-4-yl)oxy)pyrimidine-5-yl)-5-para-fluorophenyl-4-oxo-1,4-dihydropyridazine-3-carboxamide]: the IC50 in data set [2] is under 1 nM. In data set [1], this molecule returned a half-life at 1 μM of 8.88 h and a microsomal CLint at 1 μM of 2.6 µL/min/mg.

As for `COc1cc2nccc(Oc3ccc(NC(=O)c4cn(C(C)C)cc(-c5ccc(C)cc5)c4=O)nc3)c2cc1OC` [Compound 1, N-(5-((6,7-dimethoxyquinolin-4-yl)oxy)pyridin-2-yl)-1-isopropyl-4-oxo-5-p-tolyl-1,4-dihydropyridin-3-carboxamide], in data set [2], the IC50 was found to be 2 nM. In data set [1], this molecule came in with a half-life at 1 μM of 1.27 h and a microsomal CLint at 1 μM of 18.2 µL/min/mg.

`COc1cc2nccc(Oc3ccc(NC(=O)c4nn(C5CC5)cc(-c5ccc(F)cc5)c4=O)nc3)c2cc1OC` [Compound 31]: the IC50 in data set [2] is under 1 nM. In data set [1], this molecule yielded a half-life at 1 μM of 14.4 h and a microsomal CLint at 1 μM of 1.6 µL/min/mg.

As to `COc1cc2nccc(Oc3cnc(NC(=O)c4nn(C(C)C)cc(-c5ccc(F)cc5)c4=O)nc3)c2cc1OC` [Compound 16, N-(5-((6,7-dimethoxyquinolin-4-yl)oxy)pyrimidine-2-yl)-5-(4-fluorophenyl)-1-isopropyl-4-oxo-1,4-dihydropyridazine-3-carboxamide], the IC50 in data set [2] was determined as 2 nM. Moreover, in data set [1], the half-life at 1 μM worked out at 1.63 h and the microsomal CLint at 1 μM is 14.2 µL/min/mg.

`COc1cc2nccc(Oc3cnc(NC(=O)c4nn(C5CC5)cc(-c5ccc(F)cc5)c4=O)nc3)c2cc1OC` [Compound 33] returned an IC50 in data set [2] of under 1 nM. In data set [1], this molecule had a half-life at 1 μM of 2.75 h and a microsomal CLint at 1 μM of 8.4 µL/min/mg.

Take `COc1cc2nccc(Oc3ccc(NC(=O)c4cn(C5CC5)nc(-c5ccc(F)cc5)c4=O)nc3)c2cc1OC` [Compound 42, 2-cyclopropyl-N-(5--((6,7-dimethoxyquinolin-4-yl)oxy)pyridin-2-yl)-6-(4-fluorophenyl)-5-oxo-2,5-dihydropyridazine-4-carboxamide]: the t1/2 entry in data set [1] is listed as “→∞”.

`COc1cc2nccc(Oc3ccc(NC(=O)c4cn(C(C)C)nc(-c5ccc(F)cc5)c4=O)nc3)c2cc1OC` [Compound 41, N-(5-((6,7-dimethoxyquinolin-4-yl)oxy)pyridin-2-yl)-6-(4-fluorophenyl)-2-isopropyl-5-oxo-2,5-dihydropyridazine-4-carboxamide]: it took 2 nM to reach half-maximal inhibition in data set [2] (IC50).

For `COc1cc2nccc(Oc3ccc(NC(=O)c4cn(C(C)C)nc(-c5ccc(F)cc5)c4=O)cn3)c2cc1OC` [Compound 38, N-(6-((6,7-dimethoxyquinolin-4-yl)oxy)pyridin-3-yl)-6-para-fluorophenyl-2-isopropyl-5-oxo-2,5-dihydropyridazine-4-carboxamide], inhibition in data set [2] was half-maximal at 3 nM (IC50).

Take `COc1cc2nccc(Oc3ccc(NC(=O)c4nn(C(C)C)cc(-c5ccc(F)cc5)c4=O)nc3)c2cc1OC` [Compound 15, N-(5-((6,7-dimethoxyquinolin-4-yl)oxy)pyridin-2-yl)-5-(4-fluorophenyl)-1-isopropyl-4-oxo-1,4-dihydropyridazine-3-carboxamide]: the IC50 in data set [2] was under 1 nM. In addition, in data set [1], the half-life at 1 μM was 6.42 h and the microsomal CLint at 1 μM worked out at 3.6 µL/min/mg.

Consider `COc1cc2nccc(Oc3ccc(NC(=O)c4cn(C5CC5)nc(-c5ccc(F)cc5)c4=O)cn3)c2cc1OC` [Compound 43, 2-cyclopropyl-N-(6-((6,7-dimethoxyquinolin-4-yl)oxy)pyridin-3-yl)-6-para-fluorophenyl-5-oxo-2,5-dihydropyridazine-4-carboxamide], for which, in data set [1], the half-life at 1 μM is 10.5 h and the microsomal CLint at 1 μM amounted to 2.2 µL/min/mg.
